Reference: publication PMC5093622, “Structural characterisation of high affinity Siglec-2 (CD22) ligands in complex with whole Burkitt’s lymphoma (BL) Daudi cells by NMR spectroscopy” (Scientific Reports, 2016)

Experiments:
Siglec-2 = conditions: cited from earlier work
Siglec-2 Fc chimeras = target: T1, Siglec-2 Fc chimeras (Homo sapiens, UniProt P20273); experiment: Surface Plasmon Resonance (SPR) assay; type: binding
T1 construct: the three N-terminal Ig-domains of Siglec-2 were fused to the C-terminal human IgG1 Fc domain; made in house; host or cells: CHO-Lec1
T1 sequence (P20273 with tags, fused parts or gaps limits assumed): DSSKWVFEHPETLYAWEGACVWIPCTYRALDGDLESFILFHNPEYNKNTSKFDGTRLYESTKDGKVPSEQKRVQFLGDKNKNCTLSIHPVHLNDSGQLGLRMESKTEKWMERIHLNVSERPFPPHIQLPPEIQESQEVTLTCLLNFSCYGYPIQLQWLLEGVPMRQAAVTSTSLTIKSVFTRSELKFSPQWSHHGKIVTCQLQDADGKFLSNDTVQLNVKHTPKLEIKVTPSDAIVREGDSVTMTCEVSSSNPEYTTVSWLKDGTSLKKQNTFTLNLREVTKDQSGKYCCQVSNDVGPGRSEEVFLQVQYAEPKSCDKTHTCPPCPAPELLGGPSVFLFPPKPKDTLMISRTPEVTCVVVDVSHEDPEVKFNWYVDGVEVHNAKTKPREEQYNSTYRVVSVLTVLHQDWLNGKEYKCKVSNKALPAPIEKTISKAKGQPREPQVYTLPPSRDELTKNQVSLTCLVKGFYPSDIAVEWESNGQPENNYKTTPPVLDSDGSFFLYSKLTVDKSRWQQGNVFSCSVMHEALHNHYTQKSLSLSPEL
Experimental: Recombinant Siglec-2 (CD22) Fc-chimeras were expressed in CHO-Lec1 and protein purification was performed as described. The recombinant Siglec-2-Fc chimera, in which the three N-terminal Ig-domains of Siglec-2 were fused to the C-terminal human IgG1 Fc domain, was expressed in CHO-Lec1 cells.
Siglec-Fc chimeras were either captured to anti-Fc antibody-derivatised dextran surface of a Reichert SR7500DC flow cell or directly immobilized by amide coupling. N-acetylneuraminic acid derivatives at various concentrations in PBS were passed over the flow cell at a flow rate of 20 μL/min followed by buffer for dissociation. Specific binding was determined by subtracting the signal obtained from the reference cell (ethanolamine derivatised dextran surface) from the sample cell derivatised with Siglec-2 Fc chimeras. The data were analysed and fitted using the software Scrubber (BioLogic). Corresponding sensorgrams for 7 and 8 are shown in Supplementary Figure 2a,b, respectively.

[1] = system: T2, Siglec-2 transiently expressed on HEK293T cells; experiment: STD NMR binding to untransfected and Siglec-2 transfected HEK293T cells; parameters: species or system human
T2 construct: host or cells: HEK293T
Experimental: (§1) STD NMR spectra were performed using a Bruker Advance 600 MHz spectrometer, equipped with a 5-mm TXI probe with triple axis gradients at 283 K. 5 × 10^5 BL Daudi and 1 × 10^6 HEK293T cells were washed three times with the optimised deuterated NMR buffer by centrifugation at 1,300 rpm, at room temperature for 5 min and resuspending in 200 μL. The ligand concentration was adjusted to 0.5 mM for all experiments. To determine the binding epitope of the ligands when bound to cells STDD (Saturation Transfer Double Difference) spectra were generated by subtracting STD NMR signals from the ligand-cell complex from the spectrum obtained in the absence of cells or protein.
The full-length codon-optimized coding sequence of Siglec-2 (Uniprot entry P20273-1) cloned in plasmid pD2517 was purchased from DNA2.0 (Menlo Park, CA, USA). Plasmid amplification was performed by transformation into chemically competent E. coli NEB 5-alpha (Ipswich, MA, USA) followed by purification using a NucleoBond XTRA EF Plasmid Purification Kit (Machery Nagel, Duren, Germany, EU). […] Transfection efficiency was monitored by flow cytometry analysis 24 and 48 h post-transfection. […]

[2] = system: T3, Siglec-2 expressed on intact Burkitt's lymphoma (BL) Daudi cells; experiment: STD NMR binding to intact BL Daudi cells; parameters: species or system human; conditions: for STD NMR signals in the presence of BL Daudi cells: 0.5 mM ligand, 5.0 × 10^5 BL Daudi cells, 283 K
T3 construct: host or cells: BL Daudi cells
Text: Anti-human Siglec-1 (CD169)-FITC, (clone: 7-239); Siglec-3 (CD33)-FITC, (clone: AC104.3E3); Siglec-5 (CD170)-FITC (clone: 1A5); Siglec-7 (CD328)-VioBlue, (clone: REA214); Siglec-8-FITC, (clone: 7C9) and relevant isotype controls were purchased from Miltenyi Biotech (Bergisch Gladbach, Germany, UE). Mouse anti-human Siglec-2 (CD22) primary antibody (clone RFB4) and the relevant isotype control (clone 1E2.2) were purchased from Merck Group (Darmstadt, Germany, UE). The rat anti-mouse secondary antibody BV421 conjugated was purchased from BD Biosciences (San Jose, CA, USA). Rabbit anti-human Siglec-4 (Myelin Associated Glycoprotein, MAG) was purchased from LifeSpan BioSciences (Seattle, WA, USA). The Donkey anti-rabbit secondary antibody (Clone Poly4064)-BV421 conjugated was purchased from Biolegend (San Diego, CA, USA). Anti-human Siglec-5/Siglec-14-APC (Clone 194128), Siglec-6 (CD327)-APC (Clone 767329), Siglec-9-FITC (Clone 191240); Goat Siglec-10-PE Affinity Purified PAb, Goat Siglec-11-PE Affinity Purified PAb, Goat IgG-PE control, Siglec-16-APC (Clone 706022), and relevant isotypes were purchased from R&D Systems (Minneapolis, MN, USA). BL Daudi and HEK293T cells were incubated with the antibodies for one hour at 4 °C in PBS supplemented with 1% FCS (PBS-FBS) at a ratio of 1 μg of antibody per 1 × 10^6 cells. The cells were washed three times and then suspended in 1 mL of PBS-FBS buffer prior to flow cytometry analysis. Propidium iodide was used at a concentration of 10 ug/mL to differentiate viable from non-viable cells. Secondary antibodies were used according to the suppliers’ instructions. A CyAn ADP Flow Cytometer and Kaluza Flow Cytometry software were used for flow cytometric analysis (Beckman Coulter, Brea, CA, USA). For sorting the BL Daudi cells into Siglec-2^low and Siglec-2^high fractions, antibody staining was achieved as described above. RPMI-1640 medium containing 50% v/v FBS was used for collecting sorted cells to minimise cell damage. Cells were sorted into low and high expressing Siglec-2 groups based on their fluorescence intensity, using MoFlo XDP (Beckman Coulter, CA, USA).
as §1
Mild periodate treatment to disrupt cis-binding was performed following published procedures. BL Daudi cells were resuspended in phosphate buffer (pH 7.4) containing freshly dissolved 2 mM NaIO4 and incubated at 4 °C in the dark. After 30 min, the excess of periodate was quenched by adding 10 μL of 20% deuterated glycerol followed by immediate washing with deuterated buffer optimised for cell NMR experiments. The STD NMR on-resonance frequency was set to −1.00 ppm and the off-resonance to 300 ppm. To ensure the viability of the cells during NMR acquisition 256 scans were chosen resulting in a total acquisition time of 53 min.

[3] = parameters: method as in PMID 10589082; conditions: patients treated with Rituximab; cited from earlier work

## COC1(C(=O)O)CC(O)C(NC(C)=O)C(C(O)C(O)CO)O1 (stereo not drawn) [compound 1, Neu5Acα2Me]
Siglec-2; read-out: IC50 value (binding potency for Siglec-2)
  IC50: 1400 µM

## COC1(C(=O)O)CC(O)C(NC(C)=O)C(C(O)C(O)CNC(=O)c2ccc(-c3ccccc3)cc2)O1 (stereo not drawn) [compound 2, 9-BPC-Neu5Acα2Me, reference compound]
Siglec-2; relative to Neu5Acα2Me (1)
  increase of overall potency by a factor: 224
Siglec-2 Fc chimeras
  Kd: 4.34 µM

## COC1(C(=O)O)CC(NC(=O)c2cccc([N+](=O)[O-])c2)C(NC(C)=O)C(C(O)C(O)CNC(=O)c2ccc(-c3ccccc3)cc2)O1 (stereo not drawn) [compound 3, 9-biphenylcarboxamido-4-meta-nitrophenyl-carboxamido-Neu5Acα2Me]
[1]; 1.0 × 10^6 cells, 283 K
  increase in STD NMR signal intensity, Siglec-2 transfected versus untransfected HEK293T cells: 75 fold
[1]; 1.0 × 10^6 untransfected cells
  STD NMR signal intensity with non-transfected HEK293T cells: Very low signal intensity
Siglec-2; relative to 2
  fold higher affinity than 9-BPC-Neu5Acα2Me (2): 15 fold
[2]
  STD NMR signals in the presence of BL Daudi cells: strong and significant signals
[2]; N-acetyl methyl protons, 5.0 × 10^5 sorted cells
  increase in absolute STD NMR signal intensity, Siglec-2^high versus Siglec-2^low BL Daudi cells: 46%
[2]; cells pre-treated with 2 mM NaIO4, versus untreated cells
  change in STD NMR signal intensities with periodate pretreated BL Daudi cells: significant increase
Siglec-2 Fc chimeras
  Kd: 0.66 µM

## CC(=O)N[C@@H]1[C@@H](NC(=O)c2cccc([N+](=O)[O-])c2)[C@H](O)[C@](OCc2cn(CC(=O)O)nn2)(C(=O)O)O[C@H]1[C@H](O)[C@H](O)CNC(=O)c1ccc(-c2ccccc2)cc1 [compound 7]
[2]
  STD NMR signals in the presence of BL Daudi cells: strong STD NMR signals
Siglec-2 Fc chimeras
  Kd: 0.182 µM

## COc1cccc(C(=O)N[C@@H]2[C@@H](NC(C)=O)[C@H]([C@H](O)[C@H](O)CNC(=O)c3ccc(-c4ccccc4)cc3)O[C@@](OCc3cn(CC(=O)O)nn3)(C(=O)O)[C@H]2O)c1 [compound 8, 9-BPC-2-(4-carboxymethyl-[1,2,3]triazol-1-yl)-3-hydroxy-4-meta-methoxyphenyl-carboxamido-Neu5Acα2Me]
Siglec-2 Fc chimeras
  Kd: 0.175 µM

## OC[C@H]1O[C@@](CO)(O[C@H]2O[C@H](CO)[C@@H](O)[C@H](O)[C@H]2O)[C@@H](O)[C@@H]1O [sucrose, reference compound]
[2]
  STD NMR signals in the presence of BL Daudi cells: no STD NMR signals can be detected

## Rituximab: anti-CD20 antibody
[3]
  patients suffering from severe side effects: 80%
